Results as given in ChEMBL document CHEMBL4177521, “Therapeutic Potential of Fatty Acid Amide Hydrolase, Monoacylglycerol Lipase, and N-Acylethanolamine Acid Amidase Inhibitors” (J Med Chem, 2017).
Values belong to the compound of their own block, whether it stands above or below them.

Columns and labels:
[1] = target: T1, Fatty-acid amide hydrolase 1 (Rattus norvegicus, UniProt P97612); test: Inhibition of rat FAAH
T1 sequence (P97612 whole entry): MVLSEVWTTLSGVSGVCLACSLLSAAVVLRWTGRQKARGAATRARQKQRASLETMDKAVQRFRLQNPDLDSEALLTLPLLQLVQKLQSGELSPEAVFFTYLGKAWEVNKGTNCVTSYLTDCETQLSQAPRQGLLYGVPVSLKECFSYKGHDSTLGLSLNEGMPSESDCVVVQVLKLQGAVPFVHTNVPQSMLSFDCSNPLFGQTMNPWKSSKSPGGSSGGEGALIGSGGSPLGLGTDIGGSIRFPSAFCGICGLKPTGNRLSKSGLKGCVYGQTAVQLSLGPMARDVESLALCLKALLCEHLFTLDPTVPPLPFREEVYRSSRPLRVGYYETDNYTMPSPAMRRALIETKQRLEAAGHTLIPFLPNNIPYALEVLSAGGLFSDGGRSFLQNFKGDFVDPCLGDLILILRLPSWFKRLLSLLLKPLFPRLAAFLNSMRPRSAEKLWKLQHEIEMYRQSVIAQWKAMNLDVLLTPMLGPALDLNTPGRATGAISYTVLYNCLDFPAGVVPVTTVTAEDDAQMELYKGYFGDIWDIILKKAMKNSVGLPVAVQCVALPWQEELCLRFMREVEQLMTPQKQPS

[2] = target: T1, Fatty-acid amide hydrolase 1; test: Inhibition of Sprague-Dawley rat brain FAAH preincubated for 10 mins followed by [3H]-anandamide substrate addition after 30 mins by liquid scintillation counting method
[3] = Half life in mouse plasma; format: ADME, cell-free
[4] = Half life in pH 5.0 buffer; format: physicochemical
[5] = Half life in rat plasma; format: ADME, cell-free
[6] = Half life in pH 7.4 buffer; format: physicochemical
Monoglyceride lipase [7] = target: T2, Monoglyceride lipase (Rattus norvegicus, UniProt Q8R431); test: Inhibition of recombinant rat MAGL expressed in Escherichia coli using 2-AG as substrate
T2 sequence (Q8R431 whole entry): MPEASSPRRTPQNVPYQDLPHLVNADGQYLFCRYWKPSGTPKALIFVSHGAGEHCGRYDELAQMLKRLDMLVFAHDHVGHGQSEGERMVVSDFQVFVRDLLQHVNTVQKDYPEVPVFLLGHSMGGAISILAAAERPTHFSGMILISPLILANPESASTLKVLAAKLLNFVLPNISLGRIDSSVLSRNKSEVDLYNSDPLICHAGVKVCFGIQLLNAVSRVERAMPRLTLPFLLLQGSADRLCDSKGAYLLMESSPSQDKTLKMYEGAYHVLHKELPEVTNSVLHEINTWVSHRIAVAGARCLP

[8] = target: T1, Fatty-acid amide hydrolase 1; test: Inhibition of rat FAAH assessed as reduction in [14C]oleamide conversion to oleic acid by Lineweaver-Burk plot analysis
[9] = target: T1, Fatty-acid amide hydrolase 1; test: Inhibition of rat brain microsomal FAAH using N-(2-hydroxyethyl)-4-pyren-1-yl-butanamide as substrate after 60 mins by RP HPLC based fluorescence assay
[10] = target: T3, N-acylethanolamine-hydrolyzing acid amidase (Homo sapiens, UniProt Q02083); test: Inhibition of recombinant human NAAA expressed in HEK293 cells preincubated for 10 mins followed by PAMCA substrate addition after 30 mins by fluorescence assay; format: cell-based
T3 sequence (Q02083 whole entry): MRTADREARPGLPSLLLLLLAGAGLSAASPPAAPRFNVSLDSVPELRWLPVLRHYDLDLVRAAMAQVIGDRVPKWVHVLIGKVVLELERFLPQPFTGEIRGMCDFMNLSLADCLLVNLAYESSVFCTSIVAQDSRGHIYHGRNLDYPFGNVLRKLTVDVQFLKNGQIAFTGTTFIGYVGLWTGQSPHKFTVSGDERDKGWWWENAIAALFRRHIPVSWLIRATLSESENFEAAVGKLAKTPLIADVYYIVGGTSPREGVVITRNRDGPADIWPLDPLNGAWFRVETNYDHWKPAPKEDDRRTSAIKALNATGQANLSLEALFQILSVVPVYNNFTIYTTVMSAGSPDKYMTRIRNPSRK

[11] = Half life in rat plasma at 3 uM by LC/MS analysis; format: ADME, cell-free
Monoglyceride lipase [12] = target: T2, Monoglyceride lipase; test: Inhibition of rat MAGL
Monoglyceride lipase [13] = target: T4, Monoglyceride lipase (Mus musculus, UniProt O35678); test: Inhibition of mouse MAGL
T4 sequence (O35678 whole entry): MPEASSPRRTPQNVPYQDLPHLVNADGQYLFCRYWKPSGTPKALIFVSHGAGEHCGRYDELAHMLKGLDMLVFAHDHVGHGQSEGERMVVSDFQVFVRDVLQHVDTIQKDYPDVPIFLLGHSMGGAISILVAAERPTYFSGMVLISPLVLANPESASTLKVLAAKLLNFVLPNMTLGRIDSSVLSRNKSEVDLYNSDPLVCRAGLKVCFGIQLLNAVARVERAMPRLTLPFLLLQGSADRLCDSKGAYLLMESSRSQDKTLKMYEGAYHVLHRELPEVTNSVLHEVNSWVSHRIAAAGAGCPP

Monoglyceride lipase [14] = target: T2, Monoglyceride lipase; test: Inhibition of recombinant rat N-terminal histidine tagged MAGL expressed in Escherichia coli Rosetta 2 (DE3) pLysS cells preincubated for 10 mins followed by 2-OG substrate addition after 10 mins by LC/MS analysis
Homo sapiens [15] = species on record: Homo sapiens; test: Selectivity index, ratio of IC50 for ABHD6 (unknown origin) to IC50 for human MAGL
Homo sapiens [16] = species on record: Homo sapiens; test: Selectivity index, ratio of IC50 for FAAH (unknown origin) to IC50 for human MAGL
[17] = target: T1, Fatty-acid amide hydrolase 1; test: Inhibition of FAAH in Wistar rat brain membranes using [3H]-anandamide as substrate preincubated for 10 mins followed by substrate addition measured after 4 mins by liquid scintillation counting method; format: cell membranes, Membrane
Monoglyceride lipase [18] = target: T5, Monoglyceride lipase (Homo sapiens, UniProt Q99685); test: Inhibition of recombinant human N-terminal His6-tagged and C-terminal Strep-tagged MAGL expressed in Escherichia coli Rosetta using [3H]2-OG as substrate after 10 mins by liquid scintillation counting method
T5 sequence (Q99685 whole entry): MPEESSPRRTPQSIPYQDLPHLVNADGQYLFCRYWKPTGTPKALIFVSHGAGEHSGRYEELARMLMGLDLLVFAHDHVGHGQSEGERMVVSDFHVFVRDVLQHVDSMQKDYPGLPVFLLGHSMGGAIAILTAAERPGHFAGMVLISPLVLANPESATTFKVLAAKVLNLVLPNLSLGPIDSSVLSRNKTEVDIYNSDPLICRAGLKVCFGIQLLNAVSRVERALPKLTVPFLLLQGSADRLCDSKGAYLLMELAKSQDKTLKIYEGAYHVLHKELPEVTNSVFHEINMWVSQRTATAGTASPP

Monoglyceride lipase [19] = target: T2, Monoglyceride lipase; test: Inhibition of rat cerebellar membranes MAGL-like activity preincubated for 30 mins followed by 2-AG substrate addition after 90 mins by HPLC analysis; design: species or system Cerebellum, Membrane

SMILES: CC(C)=CCC[C@@H](C)[C@@H]1CCC[C@]2(C)C3=C(CC[C@@]12C)[C@@]1(C)CC[C@H](O)C(C)(C)[C@@H]1CC3
IC50 (Monoglyceride lipase [7]): 315 nM

SMILES: CC(C)(C)[C@@H]1OC(=O)[C@H]1NC(=O)OCc1ccc(-c2ccccc2)cc1
IC50 [10]: 507 nM | half-life at 3 µM [11]: > 5 min

SMILES: COc1ccc(Cn2cc(CNC(=O)OCc3cn(Cc4cccc(OC)c4)nn3)nn2)cc1
IC50 [2]: 5.8 nM

SMILES: O=C(N1CCN(C(c2ccc(F)cc2)c2ccc(F)cc2)CC1)n1cncn1
IC50 (Monoglyceride lipase [12]): 1.1 nM | IC50 (Monoglyceride lipase [13]): 0.219 nM

SMILES: CCCCCCCCn1sccc1=O
IC50 (Monoglyceride lipase [14]): 88 nM

SMILES: O=C(N1CCC(C(c2ccc3c(c2)OCO3)c2ccc3c(c2)OCO3)CC1)n1cncn1
Ratio IC50 (Homo sapiens [15]): 60 | IC50 (Monoglyceride lipase [12]): 0.214 nM | IC50 (Monoglyceride lipase [13]): 0.275 nM | Ratio IC50 (Homo sapiens [16]): 11200

SMILES: O=C(NC1CCCCC1)Oc1cccc(-c2ccccc2)c1
IC50 [17]: 25.6 nM

SMILES: c1ccc(SSc2ccccc2)cc1
IC50 (Monoglyceride lipase [18]): 1600 nM

SMILES: O=C1C=CC(=O)N1c1ccc2ccc3cccc4ccc1c2c34
IC50 (Monoglyceride lipase [19]): 9200 nM

SMILES: O=C(N1CCC(=C(c2ccc3c(c2)OCO3)c2ccc3c(c2)OCO3)CC1)n1cncn1
IC50 (Monoglyceride lipase [12]): 0.269 nM | IC50 (Monoglyceride lipase [13]): 0.191 nM

SMILES: CCN1C(=O)C=CC1=O [N-ETHYLMALEIMIDE]
IC50 (Monoglyceride lipase [19]): 53000 nM

SMILES: O=C(N1CCN(C(c2ccccc2)c2ccccc2)CC1)n1cncn1
IC50 (Monoglyceride lipase [12]): 0.589 nM | IC50 (Monoglyceride lipase [13]): 0.309 nM

Next, values leading:

IC50 [1]: 6.1 nM
SMILES: COc1nn(-c2cccc(Oc3ccccc3)c2)c(=O)o1

IC50 [2]: 51500 nM
SMILES: O=C(NC1CCCCC1)OCc1ncn(Cc2ccccc2)n1

IC50 [2]: 26.2 nM
SMILES: O=C(NC1CCCCC1)OCc1cn(Cc2ccccc2)nn1

half-life [3]: < 1 min
SMILES: O=C(CCc1ccccc1)N[C@H]1COC1=O

half-life [4]: > 24 h | half-life [5]: 3.33 h | half-life [6]: > 24 h
SMILES: O=C(CCCCCc1ccccc1)N1CCOC1=O

Ki [8]: 0.3 nM
SMILES: O=C(CCCCc1ccccc1)c1nc2ncccc2o1

IC50 [9]: 110 nM
SMILES: O=C(NCCCCCCCCn1nnc(-c2ccccc2)n1)Oc1ccccc1

IC50 [9]: 11 nM
SMILES: O=C(NCCCCCCn1nnc(-c2ccccc2)n1)Oc1cccnc1

Ki [8]: 0.39 nM
SMILES: O=C(CCCCCCCc1ccccc1)c1nc2ncccc2o1

IC50 [9]: 200 nM
SMILES: O=C(NCCCCCCn1nnc(-c2cccc(Cl)c2)n1)Oc1ccccc1

IC50 [9]: 81 nM
SMILES: O=C(NCCCCCCCn1nnc(-c2ccccc2)n1)Oc1ccccc1
